From patent US20110092445A1, “Amyloid ß peptide analogues, oligomers thereof, processes for preparing and composi-tions comprising said analogues or oligomers, and their uses” (Abbott Laboratories, priority 2008, published 2011)
Bridges are numbered along the chain shown (N, C = ends). Where no end group is shown, it is not given here.

How the values were obtained:
[1] = system: Aβ globulomer-specific antibody 7C6; test: Dot blot analysis with monoclonal antibody 7C6; format: binding, murine; conditions: FIG. 8A
Source text: (§1) 1. (14C, 37C) N-Met Aβ(1-42) oligomer of example 4a 2. Thermolysin truncated (14C, 37C) N-Met Aβ(1-42) oligomer of example 5a 3. (15C, 36C) N-Met Aβ(1-42) oligomer of example 4b 4. Thermolysin truncated (15C, 36C) N-Met Aβ(1-42) oligomer of example 5b 5. (16C, 35C) N-Met Aβ(1-42) oligomer of example 4c 6. Thermolysin truncated (16C, 35C) N-Met Aβ(1-42) oligomer of example 5c 7. (17C, 34C) N-Met Aβ(1-42) oligomer of example 4d 8) Thermolysin truncated (17C, 34C) N-Met Aβ(1-42) oligomer of example 5d 9. (18C, 33C) N-Met Aβ(1-42) oligomer of example 4e 10. Thermolysin truncated (18C, 33C) N-Met Aβ(1-42) oligomer of example 5e 11. (19C, 32C) N-Met Aβ(1-42) oligomer of example 4f 12. Thermolysin truncated (19C, 32C) N-Met Aβ(1-42) oligomer of example 5f 13. (20C, 31C) N-Met Aβ(1-42) oligomer of example 4g 14. Thermolysin truncated (20C, 31C) N-Met Aβ(1-42) oligomer of example 5g 15. (21C, 30C) N-Met Aβ(1-42) oligomer of example 4h 16. Thermolysin truncated (21C, 30C) N-Met Aβ(1-42) oligomer of example 5h 17. (22C, 29C) N-Met Aβ(1-42) oligomer of example 4i 18. Thermolysin truncated (22C, 29C) N-Met Aβ(1-42) oligomer of example 5i 19. Aβ(1-42) globulomer of example 4j 20. Aβ(1-42) thermolysin truncated globulomer of example 5j
(§2) • Serial dilution of Aβ antigens in columns 1-20 in 20 mM NaH2PO4, 140 mM NaCl, pH 7.4+0.2 mg/ml BSA • 1) 10 pmol/μl • 2) 1 pmol/μl • 3) 0.1 pmol/μl • 4) 0.01 pmol/μl • 5) 0.001 pmol/μl
(§3) • TBS • 25 mM Tris/HCl-buffer pH 7.5 • +150 mM NaCl • TTBS • 25 mM Tris/HCl-buffer pH 7.5 • +150 mM NaCl • +0.05% Tween 20 • PBS+0.2 mg/ml BSA • 20 mM NaH2PO4 buffer pH 7.4 • +140 mM NaCl • +0.2 mg/ml BSA
(§4) • Either Rabbit sera samples or mouse monoclonal antibodies were used as Antibody solution I and prepared as in the following: • Rabbit sera samples (1:200 diluted in 20 ml 1% low fat milk in TBS) • Mouse monoclonal antibodies (diluted to 0.2 μg/ml in 20 ml 1% low fat milk in TBS)
(§5) • In the case Antibody solution I was Rabbit sera samples then Antibody solution II was Anti-Rabbit-AP. […]

[2] = system: polyclonal rabbit serum 5599; test: Dot blot analysis with rabbit polyclonal antibody 5599; format: binding; conditions: FIG. 8B; serum shows high general background
Source text: as §1, §2, §3, §4, §5

[3] = system: Alzheimer Disease transgenic mice; conditions: active immunization, cited from earlier work
[4] = system: Aβ globulomer epitope specific antibody 10F11; test: Immunoprecipitation with 10F11-Dynabeads and SELDI-MS detection; format: binding, murine; conditions: FIG. 10A/10B; isotype controls IgG2a, IgG2b
Method: (§6) A: Activation of Dynabeads with Monoclonal Mouse Antibodies • The stock-suspension of dynabeads (Dynabeads M-280 Sheep anti-Mouse IgG, Invitrogen; Cat. no.: 112.02) was shaken carefully to prevent foaming. • 1 mL was aseptically removed and transferred to a 1.5 mL reaction vial. • The dynabeads were washed 3 times 5 min with 1 mL immunoprecipitation (IP)-wash buffer (IP-wash-buffer: PBS (20 mM NaH2PO4, 140 mM NaCl, pH 7.4), 0.1% BSA). During the washing procedure the supernatant was carefully removed while the dynabeads were immobilized at the side of the reaction vial with a magnetic separator stand (MSS). • The washed dynabeads were incubated with 40 μg Aβ antibody in 1 mL PBS, 0.1% BSA • The activation was carried out by overnight incubation under shaking at 4° C. • The activated dynabeads were washed 4 times 30 min (again using the MSS) with 1 mL IP-wash buffer (PBS (20 mM NaH2PO4, 140 mM NaCl, pH 7.4), 0.1% BSA). • The activated dynabeads were resuspended with 1 mL PBS, 0.1% BSA, 0.02% NaAzide; vortexed and centrifuged briefly. • The antibody activated dynabeads were stored at 4° C. until further use. […]

[5] = system: Aβ globulomer epitope specific antibody 7C6; test: Immunoprecipitation with 7C6-Dynabeads and SELDI-MS detection; format: binding, murine
Method: as §6

Row | Substance | recognition by Aβ globulomer-specific antibody 7C6 in dot blot [1] | recognition by polyclonal rabbit serum 5599 in dot blot [2] | also measured
1 | Aβ(1-42) globulomer [example 4j] | do not detect | do not detect | 
2 | Aβ(20-42) truncated globulomer: obtained by subjecting an Aβ(1-42) globulomer to thermolysin proteolysis (FAEDVGSNKGAIIGLMVGGVVIA; also: truncated globulomer) |  |  | reversal of deficits in novel object recognition task ([3]; AD transgenic mouse models): proven to reverse deficits in novel object recognition task; reversing cognitive defects in Alzheimer Disease transgenic mice [3]: effective in reversing cognitive defects
3 | Disulfide-stabilized (17C, 34C) ARO 6-35)-amide oligomer (KCVFFAEDVGSNKGAIIGCM-NH2; disulfide 2-19; also: oligomer; UniProt P05067 687-706, looked up, variant L17C L34C) [example 4p] |  |  | recognition by 10F11 (immunoprecipitation, SELDI-MS) [4]: recognized; recognition by 7C6 (immunoprecipitation, SELDI-MS) ([5]; FIG. 10A/10B, isotype controls IgG2a, IgG2b): recognized; presence of the Aβ globulomer epitope (conclusion from immunoprecipitation) ([5]; immunoprecipitation with 7C6 and 10F11): contained the Aβ globulomer epitope
4 | Thermolysin truncation of Aβ(1-42) globulomer [example 5j] | comparable recognition | comparable recognition | 
5 | Thermolysin truncation of disulfide-stabilized (15C, 36C) N-Met Aβ(1-42) oligomer [example 5b] | only recognized by the polyclonal rabbit serum 5599 | recognized by the polyclonal rabbit serum 5599 | 
